“And” between values parts separate entries of the source, which are not always exact repeats. Equal entries are not always repeated. Where two headings read alike, the source gives them in different places. Marks after values point to notes of the source that are not given here.
What was measured:
[1] = test system: HTB-140 malignant melanoma cells; experiment: LDH cytotoxicity assay, HTB-140; assay type: cell-based; details: Homo sapiens, LDH test, read-out: Cytotoxic activity expressed as IC50
Protocol: (§1) The cytotoxic activity was tested on human cancer and normal cell lines, grouped in several panels: skin (malignant melanoma HTB-140, malignant melanoma A375, melanoma WM793, and normal keratinocytes HaCaT), prostate (prostate carcinoma DU-145, prostate carcinoma PC3, and prostate epithelial cells PNT2), thyroid (thyroid carcinoma FTC133, thyroid carcinoma, undifferentiated 8505C), gastrointestinal panel (hepatocellular carcinoma HepG2, colon adenocarcinoma Caco-2, and colon adenocarcinoma HT29), and single line of lung carcinoma A549. Cells were grown at standard conditions (37 °C, 5% CO2, relative humidity) and culture media (DMEM/F12 for PNT2, WM793, HT29, A549; DMEM Low Glucose for DU-145; DMEM High Glucose for A375, HaCaT, A549; MEM with NEAA for Caco-2), supplemented with 10% fetal bovine serum (FBS) and 1% antibiotic solution (10,000 U penicillin and 10 mg streptomycin/mL). All cell lines, cell culture media, and supplements were from Merck (Seelze, Germany).
(§2) Before the experiment, cells were seeded onto 96-well plates for 24 h, at a density of 1.5 × 10^4 cells/ well. Then the tested compounds (5–100 μg/mL) were added and incubated for 24 and 48 h. Cell viability was measured with the lactate dehydrogenase (LDH) assay by Clontech (Clontech, Mountain View, CA, USA), as described previously. The absorbance was measured at 490 nm using a Biotek Synergy microplate reader (BioTek Instruments Inc., Winooski, VT, USA). Cell viability was expressed as a percentage of dead cells. Each experiment was conducted in triplicate. Doxorubicin was used as a reference cytostatic.
(§3) The results were expressed as mean (±SD). Data were analyzed using Statistica v.13.3 (StatSoft, Tulsa, OK, USA). The IC50 values were calculated using OriginPro 2020b (64-bit) 9.7.5.184 (Academic) (OriginLab Corporation, Northampton, MA, USA). One-way analysis of variance (ANOVA) and the post-hoc Tukey multiple comparison test were used. The statistical significance was defined at the probability level of p < 0.05. Principal component analysis (PCA) and hierarchical cluster analysis (HCA) were performed using Statistica v.13.3 (StatSoft, Tulsa, OK, USA). Prior to PCA, the Bartlett’s sphericity test was conducted, and the Kaiser-Meyer-Olkin Measure of Sampling Adequacy index (KMO) was examined. In the simple model, for each compound tested (1–4), the cell lines were the cases, and the different concentrations of the compound were the parameters. This was followed by a PCA model in which the cell lines were the parameters, and the compounds (at different concentrations) were the cases. All PCA models were based on a correlation matrix. Hierarchical cluster analysis (CA) based on standardized data was performed using Ward’s method and Euclidean distance. The results were grouped based on Mojena’s rule.

[2] = test system: A375 malignant melanoma cells; experiment: LDH cytotoxicity assay, A375; assay type: cell-based; details: Homo sapiens, A-375, LDH test, read-out: Cytotoxic activity expressed as IC50
Protocol: as §1, §2, §3

[3] = test system: WM793 primary melanoma cells; experiment: LDH cytotoxicity assay, WM793; assay type: cell-based; details: Homo sapiens, LDH test, read-out: Cytotoxic activity expressed as IC50
Protocol: as §1, §2, §3

[4] = LDH cytotoxicity assay, HaCaT; assay type: cell-based, human; details: human, HaCaT normal keratinocytes, HaCaT normal cells, LDH test, read-out: Cytotoxic activity expressed as IC50; for IC50 at 24 h: 24 h incubation; for IC50 at 48 h: 48 h incubation
Protocol: as §1, §2, §3

[5] = test system: HaCaT normal keratinocytes; experiment: LDH cytotoxicity assay, HaCaT; assay type: cell-based, human; details: HaCaT normal cells, 48 h incubation, LDH test
Protocol: as §1, §2, §3

[6] = test system: DU-145 metastatic prostate carcinoma cells; experiment: LDH cytotoxicity assay, DU-145; assay type: cell-based, human; details: for IC50: Homo sapiens, LDH test, read-out: Cytotoxic activity expressed as IC50
Protocol: as §1, §2, §3

[7] = test system: PC3 metastatic prostate carcinoma cells; experiment: LDH cytotoxicity assay, PC3; assay type: cell-based; details: Homo sapiens, LDH test, read-out: Cytotoxic activity expressed as IC50
Protocol: as §1, §2, §3

[8] = LDH cytotoxicity assay, PNT2; assay type: cell-based, human; details: human, PNT2 prostate epithelial cells (normal), PNT2 normal cells, LDH test, read-out: Cytotoxic activity expressed as IC50; for IC50 at 24 h: 24 h incubation; for IC50 at 48 h: 48 h incubation
Protocol: as §1, §2, §3

[9] = test system: PNT2 prostate epithelial cells; experiment: LDH cytotoxicity assay, PNT2; assay type: cell-based, human; details: normal prostate epithelial cells
Protocol: as §1, §2, §3

[10] = test system: FTC133 follicular thyroid carcinoma cells; experiment: LDH cytotoxicity assay, FTC133; assay type: cell-based; details: Homo sapiens, FTC-133, LDH test, read-out: Cytotoxic activity expressed as IC50
Protocol: as §1, §2, §3

[11] = test system: 8505C undifferentiated thyroid carcinoma cells; experiment: LDH cytotoxicity assay, 8505C; assay type: cell-based; details: Homo sapiens, LDH test, read-out: Cytotoxic activity expressed as IC50
Protocol: as §1, §2, §3

[12] = test system: Caco-2 colon adenocarcinoma cells; experiment: LDH cytotoxicity assay, Caco-2; assay type: cell-based; details: Homo sapiens, LDH test, read-out: Cytotoxic activity expressed as IC50
Protocol: as §1, §2, §3

[13] = test system: HT29 colon adenocarcinoma cells; experiment: LDH cytotoxicity assay, HT29; assay type: cell-based; details: Homo sapiens, HT-29, LDH test, read-out: Cytotoxic activity expressed as IC50
Protocol: as §1, §2, §3

[14] = test system: HepG2 hepatocellular carcinoma cells; experiment: LDH cytotoxicity assay, HepG2; assay type: cell-based; details: Homo sapiens, LDH test, read-out: Cytotoxic activity expressed as IC50
Protocol: as §1, §2, §3

[15] = test system: A549 lung carcinoma cells; experiment: LDH cytotoxicity assay, A549; assay type: cell-based, human; details: LDH test; for IC50: Homo sapiens, read-out: Cytotoxic activity expressed as IC50
Protocol: as §1, §2, §3

[16] = test system: human cancer and normal cell lines; experiment: Cytotoxicity screening across the whole cell line panel; assay type: cell-based; details: all cell lines tested, 5–100 μg/mL, 24 and 48 h
Protocol: The cytotoxic activity was tested on human cancer and normal cell lines, grouped in several panels: skin (malignant melanoma HTB-140, malignant melanoma A375, melanoma WM793, and normal keratinocytes HaCaT), prostate (prostate carcinoma DU-145, prostate carcinoma PC3, and prostate epithelial cells PNT2), thyroid (thyroid carcinoma FTC133, thyroid carcinoma, undifferentiated 8505C), gastrointestinal panel (hepatocellular carcinoma HepG2, colon adenocarcinoma Caco-2, and colon adenocarcinoma HT29), and single line of lung carcinoma A549. […]
Before the experiment, cells were seeded onto 96-well plates for 24 h, at a density of 1.5 × 10^4 cells/ well. […] Cell viability was measured with the lactate dehydrogenase (LDH) assay by Clontech (Clontech, Mountain View, CA, USA), as described previously. The absorbance was measured at 490 nm using a Biotek Synergy microplate reader (BioTek Instruments Inc., Winooski, VT, USA). Cell viability was expressed as a percentage of dead cells. […]
The results were expressed as mean (±SD). Data were analyzed using Statistica v.13.3 (StatSoft, Tulsa, OK, USA). The IC50 values were calculated using OriginPro 2020b (64-bit) 9.7.5.184 (Academic) (OriginLab Corporation, Northampton, MA, USA). […]

[17] = A549, 24 h, A549, 24 h incubation
[18] = A549, 48 h, A549, 48 h incubation

SMILES | IC50 ([1]; HTB-140, 24 h incubation) | IC50 ([1]; HTB-140, 48 h incubation) | IC50 ([2]; A375, 24 h incubation) | IC50 ([2]; A375, 48 h incubation) | IC50 ([3]; WM793, 24 h incubation) | IC50 ([3]; WM793, 48 h incubation) | IC50 at 24 h [4] | IC50 at 48 h [4] | IC50 ([6]; DU-145, 24 h incubation) | IC50 ([6]; DU-145, 48 h incubation) | IC50 ([7]; PC3, 24 h incubation) | IC50 ([7]; PC3, 48 h incubation) | IC50 at 24 h [8] | IC50 at 48 h [8] | IC50 ([10]; FTC133, 24 h incubation) | IC50 ([10]; FTC133, 48 h incubation) | IC50 ([11]; 24 h incubation) | IC50 ([11]; 48 h incubation) | IC50 ([12]; Caco-2, 24 h incubation) | IC50 ([12]; Caco-2, 48 h incubation) | further results
CC1(C)CC[C@]2(C(=O)O[C@@H]3O[C@H](CO)[C@@H](O)[C@H](O)[C@H]3O)CC[C@]3(C)C(=CC[C@@H]4[C@@]5(C)CC[C@H](O[C@@H]6O[C@H](CO)[C@@H](O)[C@H](O[C@@H]7O[C@H](CO)[C@@H](O)[C@H](O)[C@H]7O)[C@H]6O)[C@@](C)(CO)[C@@H]5CC[C@]43C)[C@@H]2C1 [Compound 2] | > 100 µg/mL | > 100 µg/mL | 33.9 µM and 32.5 µg/mL | 31.4 µM and 30.1 µg/mL | 14.4 µM and 13.8 µg/mL | 6.79 µM and 6.52 µg/mL | 46.8 µM and 44.9 µg/mL | 41.6 µM and 39.9 µg/mL | 33.3 µM and 32 µg/mL | 22 µM and 21.1 µg/mL | > 100 µg/mL | 69.8 µM and 67 µg/mL | > 100 µg/mL | > 100 µg/mL | 42.9 µM and 41.1 µg/mL | 23.5 µM and 22.5 µg/mL | > 100 µg/mL | > 100 µg/mL | > 100 µg/mL | 38.4 µM and 36.8 µg/mL | Cytotoxic activity expressed as IC50 [5]: 39.93 ± 0.52 ^b µg/mL; Toxicity against DU-145, in words ([6]; DU-145): moderate toxicity; IC50 ([9]; Homo sapiens, PNT2, incubation time not given, read-out: IC50 against normal prostate epithelial cells): > 100 µg/mL; Toxicity to normal prostate epithelial cells, in words [9]: non-toxic; IC50 ([13]; HT29, 24 h incubation): > 100 µg/mL; IC50 ([13]; HT29, 48 h incubation): 66.5 µM and 63.8 µg/mL; IC50 ([14]; HepG2, 24 h incubation): 98 µM and 94 µg/mL; IC50 ([14]; HepG2, 48 h incubation): 63 µM and 60.5 µg/mL; Cytotoxic activity expressed as IC50 ([15]; A549, 48 h incubation): 8.23 ± 0.29 ^a µg/mL; IC50 [15, 17]: 13.8 µM and 13.2 µg/mL; IC50 [15, 18]: 8.58 µM and 8.24 µg/mL
CC1(C)CC[C@]2(C(=O)O)CC[C@]3(C)C(=CC[C@@H]4[C@@]5(C)CC[C@H](O[C@@H]6O[C@H](CO)[C@@H](O)[C@H](O[C@@H]7O[C@H](CO)[C@@H](O)[C@H](O)[C@H]7O)[C@H]6O)[C@@](C)(CO)[C@@H]5CC[C@]43C)[C@@H]2C1 [Compound 1] | 33 µM and 26.2 µg/mL | 22.8 µM and 18.2 µg/mL | 22.6 µM and 18 µg/mL | 16 µM and 12.7 µg/mL | 34.6 µM and 27.6 µg/mL | 21.6 µM and 17.2 µg/mL | 50.8 µM and 40.4 µg/mL | 33.9 µM and 27 µg/mL | 20.7 µM and 16.5 µg/mL | 14.7 µM and 11.7 µg/mL | 73.6 µM and 58.6 µg/mL | 44.2 µM and 35.2 µg/mL | 51.1 µM and 40.7 µg/mL | 42.8 µM and 34.1 µg/mL | 30.8 µM and 24.5 µg/mL | 17.1 µM and 13.6 µg/mL | 45.1 µM and 35.9 µg/mL | 32.4 µM and 25.8 µg/mL | 27.1 µM and 21.6 µg/mL | 24.2 µM and 19.3 µg/mL | IC50 ([13]; HT29, 24 h incubation): 35.7 µM and 28.4 µg/mL; IC50 ([13]; HT29, 48 h incubation): 31.4 µM and 25 µg/mL; IC50 ([14]; HepG2, 24 h incubation): 16.6 µM and 13.2 µg/mL; IC50 ([14]; HepG2, 48 h incubation): 13.6 µM and 10.8 µg/mL; IC50 [15, 17]: 18.7 µM and 14.9 µg/mL; IC50 [15, 18]: 14.8 µM and 11.8 µg/mL; Overall cytotoxic activity across the panel, in words [16]: exhibited activity against all cell lines tested

Reference: PMC12348107, “Saponins from Oxybasis rubra (L.) S.Fuentes, Uotila & Borsh: Comparative Assessment of Cytotoxic Potential Against a Wide Panel of Cancer Cell Lines” (Molecules, 2025)
